Reference: patent US6849645B2, “Method of increased bioavailability of nutrients and pharmaceutical preparations with tetrahydropiperine and its analogues and derivatives” (priority 2000, dated 2005)
Blank lines part the entries; values can stand above or below the compound they belong to.

Key:
[1] = Franz diffusion cell, in vitro transdermal permeation of Forskolin with or without tetrahydropiperine; type: in vitro ADME, rat
Protocol: In vitro permeation studies of Forskholin, a diterpenoid compound which has various therapeutic effects (Bronchodilation—used in Asthma, prevents platelet aggregation, anti hypertensive, anti glaucoma and anti-inflammatory) was carried out. Fabricated Franz diffusion cells of capacity 67 and 69 ml were used for the study. Freshly excised rat abdominal skin was used for the permeation studies.
Solutions Used in the Study • a) 2.5% Forskolin in methanol. • b) 0.05% Tetrahydropiperine in 2.5% Forskolin in methanol. • c) 0.1% Tetrahydropiperine in 2.5% Forskolin in methanol. Procedure
Freshly excised rat abdominal […] was mounted on the Franz diffusion Cell, the outer layer of the skin facing the donor compartment. The receptor fluid was maintained at 35° C. using a thermostatic magnetic stirrer.
The study was conducted by replacing the medium in the receptor compartment with methanol instead of phosphate buffer. In both the receptor and donor compartment methanol was used as the medium in the permeation studies.
(§1) In the donor compartment 2 ml methanol containing 50 mg of Forskolin and tetrahydropiperine (5% of Forskolin conc.) was taken. Receptor compartment consisted of 69 ml of methanol maintained at 35° C. Permeation study was carried out for a period of 1 hr. Samples were withdrawn at 15, 30 and 60 minutes intervals and the amount of Forskholin present was analyzed by HPLC.
as §1, with “Forskholin” for “Forskolin and tetrahydropiperine (5% of Forskolin conc.)”, “65” for “69”, “hour.” for “hr.”

[2] = test system: tobacco cut worm, Spodoptera litura F.; assay: whole plant or invertebrate; conditions: Spodoptera litura, in Nicotiana tabacum, 48 h, read-out: PERCENT MORTALITY (Mean of 4 replications)
Protocol: The tetrahydropiperine was tested against tobacco cut worm, Spodoptera litura F. to determine its possible increased kill rate when used with Fenvalerate—a synthetic pyrethroid.
• a. Preparation of test solution—0.5 g of the test product was dissolved in 1 ml of Ethanol and made up to 100 ml in standard volumetric flask using suitable emulsifier. This solution contains 5000 ppm a.i. (0.5 percent). Further, serial dilution was made to get 0.25, 0.125 and 0.0625% of the test product. To each of these test solutions, Fenvalerate was added to get 250 ppm of Fenvalerate a.i. in the final volume. For comparison 0.5 percent of Tetrahydropiperine, Ethanol 1.0 percent solution and 250 ppm a.i. of Fenvalerate was used. • b. Bioassay—Laboratory reared 7 day old larvae of tobacco cut worm, Spodoptera litura were used in the experiment. After a series of preliminary tests the concentrations chosen for the experiment were 0.5, 0.25, 0.125 and 0.0625 percent tetrahydropiperine. Fresh castor leaves were dipped for 30 seconds in above concentrations of test and standard compounds and blank solutions. After proper drying, the treated leaves were transferred to plastic containers. To each container 5 larvae were released. This was repeated four times so as to have 20 larvae for each concentration. Larvae in control set were fed with leaves dipped in water. Observations were recorded for larval mortality after 48 hours of exposure. Results

Earthworms = assay: Albendazole induced anthelmintic activity on earthworms (paralysis and death); type: in vivo, earthworm
Protocol: An experiment to see how tetrahydropiperine enhances the skin permeability of anthelmintic drugs such as albendazole on intestinal worms was conducted. However, as a preliminary study towards this, tests on earthworms were conducted.
Earthworms were obtained from the Al Ameen College of Pharmacy, Bangalore. Albendazole (Zentel) was obtained from Smith Kline Beecham Pharmaceuticals, Bangalore. The aqueous test solution contained tetrahydropiperine (Tetraperine™, A proprietary product of Sabinsa Corporation, USA) of 0.1% and 0.2% w/v suspended in 0.25% w/v sodium carboxy methyl cellulose.
1. Effect of Albendazole: Earth worms of similar length and weight were divided into three groups of six worms each. […] The time of onset of paralysis was noted and the death of the worms were observed and recorded as above.

[3] = type: in vitro ADME, mouse
Protocol: The drug (100 ug/ml) was applied with 0.1% (active sample) or without (control sample) of THP in the donor compartment. Subsequently the absorbencies of the fluid in the receptor compartment for the presence of BMDP and THP were measured in time intervals of 5, 10, 15, 20, 30, 45 and 60 minutes.
Franz diffusion cell was utilized in the experiment. This is an in vitro set-up prepared from the graft of the abdominal skin of mouse to evaluate absorption of drugs and nutrients through the skin. The Franz diffusion cell contains Donor and Receptor compartments. The test drug, BMDP, with or without tetrahydropiperine (Control) was applied on one side of the skin (Donor compartment). The drug's transport to the Receptor side of the skin was estimated by UV method at pre-determined time intervals. […]
The hydrated skin was mounted on Franz diffusion cell with shaved surface facing the donor compartment. […] Absorbance of each sample was measured by UV spectrophotometer at the wavelength of 256 nm. • b. […] Absorbance of each sample was measured by UV spectrophotometer at the wavelength of 256 nm.
UV absorption Spectra of BMDP solutions show absorption at 238 nm when prepared in saline with tween 20 solution. […] Tetrahydropiperine gave absorbance at 228 nm and 275 nm. • 2. The absorbance of tetrahydropiperine was minimum at 256 nm while it was good for BMDP. […]

Forskolin Release Control ([1]; Forskolin 50 mg in methanol without THP, 15 min): 1.28
Forskolin Release Control ([1]; Forskolin without THP, 30 min): 4.05
Forskolin Release Control ([1]; Forskolin without THP, 60 min): 8.45
Structure (SMILES): C=C[C@@]1(C)CC(=O)[C@]2(O)[C@@]3(C)[C@@H](O)CCC(C)(C)[C@@H]3[C@H](O)[C@H](OC(C)=O)[C@@]2(C)O1 [Forskolin, reference compound]

Structure (SMILES): CC(C)C(C(=O)OC(C#N)c1cccc(Oc2ccccc2)c1)c1ccc(Cl)cc1 (centres unmarked) [Fenvalerate, reference compound]
mortality at 250 ppm [2]: 55%

Structure (SMILES): CCCSc1ccc2nc(NC(=O)OC)[nH]c2c1 [Albendazole, reference compound]
Time taken in minutes (Mean ± SEM), Paralysis (Earthworms; Albendazole 0.2% w/v alone): 99.0 ± 3.93 min
time until anthelmintic activity (Earthworms; albendazole 0.1%): > 2 h
time until anthelmintic activity (Earthworms; albendazole 0.2%): ≤ 2 h

amount of drug (BMDP) diffused in control [3]: undetectable
Structure (SMILES): CCC(=O)OCC(=O)[C@@]1(OC(=O)CC)[C@@H](C)C[C@H]2[C@@H]3CCC4=CC(=O)C=C[C@]4(C)[C@@]3(F)[C@@H](O)C[C@@]21C [BMDP, Betamethasone dipropionate]
